Laboratory results taken from patent publication US20260085292A1, “MINIMAL ESSENTIAL MEDIA FOR THE CULTURE OF HUMAN INDUCED PLURIPOTENT STEM CELLS” (Northwestern University, priority 2022, published 2026).
Structures can show the parent of a compound that is named as a salt. Where two headings read alike, the source gives them in different places. Where a SMILES comes first, the peptide text is derived from it.

What was measured:
[1] = test system: hiPSC lines (19c3 and 23c1); experiment: hiPSC growth titration assay: 1-5 passages in 12-well plates, then resazurin viability assay; conditions: for concentration required to maintain similar levels of proliferation: three-passage assay
Excerpt: Each commercial medium was normalized to the DMEM/F12 levels of L-glutamine, D-glucose, sodium pyruvate, sodium bicarbonate, pH, and osmolarity (FIG. 1B). To assess the effect of basal medium on hiPSC growth, an assay was developed consisting of plating cells in 12-well plates, and growing cells for 4 days with daily medium changes, before passaging at a 1:20 ratio. This was completed for 1-5 passages followed by a cost-effective resazurin viability assay (FIG. 1C). […] This was chosen to minimize the effect of variance caused by repeated manual passaging and replating. At least two hiPSC lines were used in parallel throughout the titration process. Identified adjusted concentrations of each group, such as amino acids, was incorporated prior to beginning the next group, such as vitamins, to bring subsequent titrations as close to final formulation as possible. Once the initial full cycle of titration of all components was complete, a second full cycle of was performed to confirm the results in the final formulation. We also completed identical experiments without daily medium change to identify components and concentrations that support this protocol (FIGS. 3, 5, and 8), and to allow for development of a simplified hiPSC culture strategy.
(§1) Human induced pluripotent cell culture: BMEM consists of BMEM basal medium and BMEM supplement. […] These are added to ultrapure water and filter sterilized. BMEM supplement consists of 5 mg/mL E. coli-derived recombinant human insulin (Gibco), […] L-ascorbic acid 2-phosphate trisodium salt (AA2P, Wako), 5 mg/mL Oryza sat-iva-derived recombinant human transferrin (Optiferrin, InVitria), 20 ng/mL sodium selenite (Sigma), 40 ng/mL recombinant human FGF2-G3 (made in-house), 0.1 ng/mL recombinant human TGFb3 (E. coli-derived, Qkine), 0.1 ng/mL recombinant human NRG1 (E. coli-derived, Shenodoah Biotechnology). Cells were routinely maintained in this medium on 1:800 diluted growth factor reduced Matrigel (Corning) diluted in a BMEM basal at 2 mL per well of a 6-well plate or equivalent. Matrigel-coated plates were kept in CO2 incubators at 37° C. for up to 1 month. BMEM was supplemented with […] thiazovivin (LC Labs), hereafter referred to as BMEM-T, for the first 24 h after passage. For standard culture, cells were passaged at a ratio of 1:20 every 4 days using 0.5 mM EDTA (Invitrogen) diluted in DPBS^−/− (without Ca^2+ and Mg^2+, Corning), after achieving ˜70%-80% confluence. Cell lines were used between passages 20 and 100. Throughout, pH was adjusted immediately after making the medium at room temperature and atmospheric oxygen and carbon dioxide levels but before filter sterilization. pH was adjusted with 12 N HCl or 1 N NaOH (both from Fisher) and measured using a SevenCompact pH meter (MettlerToledo). Osmolarity was measured using an osmometer (Advanced Instruments).
Resazurin assay: Resazurin sodium salt (B21187.06, Thermo) was diluted to 5 mg/mL in sterile Milli-Q ultrapure water and 600 μL aliquots were made and stored at −20° C. One aliquot was added to 14.4 mL of water to generate a 10× stock. Stock was diluted in BMEM to 1×, and 1 mL was added to each well of a 12-well plate and incubated at 37° C. for 2.5 h. Plates were read on a Varioskan Lux (Thermo) in fluorescent mode using top read and an excitation wavelength of 560 nm and an emission wavelength of 590 nm.

[2] = 110 mM NaCl
Experimental: as §1, with “For standard culture, cells were passaged at a ratio of 1:20 every 4 days using 0.5 mM EDTA (Invitrogen) diluted in DPBS^−/− (without Ca^2+ and Mg^2+, Corning), after achieving ˜70%-80% confluence. Cell lines were used between passages 20 and 100.” left out

[3] = daily medium change, multi-passage assay, normalized to DMEM/F12

Compound: O=S(=O)(O)CCN1CCN(CCO)CC1 [HEPES]
- requirement of the component for hiPSC growth [1, 3]: superfluous
- requirement of the component for hiPSC growth ([1]; no medium change): superfluous

Compound: CSCC[C@H](N)C(=O)O [methionine, L-Methionine]
- suitable concentration compared with that in DMEM/F12 ([1]; titration, daily medium change): approximately suitable

Compound: Nc1nc(=O)c2nc(CNc3ccc(C(=O)N[C@@H](CCC(=O)O)C(=O)O)cc3)cnc2[nH]1 [folic acid, Folic acid (B9)]
- suitable concentration compared with that in DMEM/F12 ([1]; titration, daily medium change): sufficient at concentrations lower than those in DMEM/F12

Compound: C[C@H](N)C(=O)N[C@@H](CCC(N)=O)C(=O)O [L-alanyl-L-glutamine] (H-Ala-Gln-OH)
- hiPSC growth rate compared with glutamine at the suitable concentrations ([1]; 2 mM vs 1 mM glutamine, also with no medium change): no difference
- concentration required to maintain similar levels of proliferation [1]: 2 mM

Compound: O=C(O)CCCC[C@@H]1SC[C@@H]2NC(=O)N[C@@H]21 [biotin, Biotin (B7)]
- suitable concentration compared with that in DMEM/F12 ([1]; titration, daily medium change): sufficient at concentrations lower than those in DMEM/F12

Compound: N[C@@H](Cc1ccc(O)cc1)C(=O)O [tyrosine, L-Tyrosine disodium salt hydrate]
- suitable concentration compared with that in DMEM/F12 ([1]; titration, daily medium change): approximately suitable

Compound: Cc1cn([C@H]2C[C@H](O)[C@@H](CO)O2)c(=O)[nH]c1=O [thymidine, Thymidine]
- requirement of the component for hiPSC growth [1, 3]: superfluous

Compound: Cc1cc2nc3c(=O)[nH]c(=O)nc-3n(C[C@H](O)[C@H](O)[C@H](O)CO)c2cc1C [riboflavin, Riboflavin (B2)]
- suitable concentration compared with that in DMEM/F12 ([1]; titration, daily medium change): sufficient at concentrations lower than those in DMEM/F12

Compound: N[C@@H](Cc1c[nH]cn1)C(=O)O [histidine, L-Histidine HCl•H2O]
- suitable concentration compared with that in DMEM/F12 ([1]; titration, daily medium change): approximately suitable

Compound: N[C@@H](Cc1c[nH]c2ccccc12)C(=O)O [tryptophan, L-Tryptophan]
- suitable concentration relative to that in DMEM/F12 ([1]; titration, two-passage assay): ~4 fold

Compound: O.O.O.O.O.O=S(=O)([O-])[O-].[Cu+2] [copper, Copper(II) sulfate pentahydrate (CuSO4•5H2O)]
- concentration at which toxic to hiPSCs [1]: > 100 µM
- requirement of the component for hiPSC growth [1, 3]: No advantage

Compound: O[C@H]1[C@H](O)[C@@H](O)[C@H](O)[C@@H](O)[C@H]1O [myoinositol, myo-Inositol]
- suitable concentration compared with that in DMEM/F12 ([1]; titration, daily medium change): higher concentrations

Compound: Iron
- requirement of the component for hiPSC growth [1, 3]: essential

Compound: O=C(O)CCCC[C@@H]1CCSS1 (racemic) [lipoic acid, Lipoic acid]
- requirement of the component for hiPSC growth [1, 3]: superfluous

Compound: O.O.O.O.O.O.O.O=S(=O)([O-])[O-].[Zn+2] [Zinc, Zinc sulfate heptahydrate (ZnSO4•7H2O)]
- requirement of the component for hiPSC growth [1, 3]: not shown to be essential
- improvement of hiPSC growth ([1]; two-passage assay): approximately 10%

Compound: O.O.O.O.O.O.O.O=S(=O)([O-])[O-].[Fe+2] [iron sulfate, Iron(II) sulfate heptahydrate (FeSO4•7H2O)]
- toxicity to hiPSCs [1]: toxic at high concentrations

Compound: NCC(=O)O [glycine, Glycine]
- requirement of the component for hiPSC growth ([1]; no medium change): superfluous

Compound: O.O.O.O.O.O.O.O.O.O=[N+]([O-])[O-].O=[N+]([O-])[O-].O=[N+]([O-])[O-].[Fe+3] [iron nitrate, Iron(III) nitrate nonahydrate (Fe(NO3)3•9H2O)]
- toxicity to hiPSCs ([1]; concentration titration, two-passage assay): toxic at high concentrations

Compound: NC(=O)CC[C@H](N)C(=O)O [glutamine, L-Glutamine]
- concentration required to maintain similar levels of proliferation [1]: 1 mM
- suitable concentration compared with that in DMEM/F12 ([1]; titration, daily medium change): suitable at lower concentrations

Compound: O=S(=O)([O-])[O-].[Mg+2] [MgSO4, Magnesium sulfate (MgSO4)]
- suitable concentration compared with that in DMEM/F12 ([1]; titration, daily medium change): enhanced growth

Compound: Cl.NCCCC[C@H](N)C(=O)O [lysine, L-Lysine HCl]
- suitable concentration compared with that in DMEM/F12 ([1]; titration, daily medium change): approximately suitable

Compound: CC(=O)C(=O)[O-].[Na+] [Sodium pyruvate]
- requirement of the component for hiPSC growth [1, 3]: essential
- suitable concentration compared with that in DMEM/F12 ([1]; titration, daily medium change): slightly higher concentration

Compound: Cc1ncc(CO)c(CO)c1O [pyridoxine, Pyridoxine hydrochloride (B6)]
- suitable concentration compared with that in DMEM/F12 ([1]; titration, daily medium change): sufficient at concentrations lower than those in DMEM/F12

Compound: CC(C)(CO)[C@@H](O)C(=O)NCCC(=O)[O-].CC(C)(CO)[C@@H](O)C(=O)NCCC(=O)[O-].[Ca+2] [D-pantothenic acid, D-Pantothenic acid hemicalcium salt (B5)]
- suitable concentration compared with that in DMEM/F12 ([1]; titration, daily medium change): higher concentrations

Compound: O=C([O-])O.[Na+] [sodium bicarbonate, Sodium bicarbonate (NaHCO3)]
- concentration most suitable for hiPSC growth ([1]; pH normalized to 7.1): 22.5 mM

Compound: O=c1[nH]cnc2nc[nH]c12 [hypoxanthine, Hypoxanthine]
- requirement of the component for hiPSC growth [1, 3]: superfluous

Compound: Cl.Cl.NCCCCN [putrescine, Putrescine dihydrochloride]
- requirement of the component for hiPSC growth [1, 3]: superfluous

Compound: C[C@@H](O)[C@H](N)C(=O)O [threonine, L-Threonine]
- suitable concentration compared with that in DMEM/F12 ([1]; titration, daily medium change): approximately suitable

Compound: CCCCC/C=C\C/C=C\CCCCCCCC(=O)O [linoleic acid, Linoleic acid]
- requirement of the component for hiPSC growth [1, 3]: superfluous

Compound: [Cl-].[K+] [KCl, Potassium chloride (KCl)]
- suitable concentration compared with that in DMEM/F12 ([1]; titration, daily medium change): could be reduced

Compound: NC(=O)c1cccnc1 [nicotinamide, Nicotinamide (B3)]
- suitable concentration compared with that in DMEM/F12 ([1]; titration, daily medium change): sufficient at concentrations lower than those in DMEM/F12

Compound: O.O=P([O-])(O)O.[Na+] [sodium phosphate monobasic, Sodium phosphate monobasic monohydrate (NaH2PO4•H2O)]
- requirement of the component for hiPSC growth [1, 3]: superfluous
- concentration at which essential ([1]; no medium change assay): around 2 mM

Compound: Cc1ncc(C[n+]2csc(CCO)c2C)c(N)n1 [thiamine, Thiamine hydrochloride (B1)]
- requirement of the component for hiPSC growth [1, 3]: superfluous
- requirement of the component for hiPSC growth ([1]; normoxic conditions (21% O2)): required

Compound: [Ca+2].[Cl-].[Cl-] [CaCl2, Calcium chloride (CaCl2)]
- suitable concentration compared with that in DMEM/F12 ([1]; titration, daily medium change): could be reduced
- effect of low concentrations on hiPSCs ([1]; two-passage titration): reduced the adhesion of hiPSCs to the plates

Compound: CC(C)C[C@H](N)C(=O)O [leucine, L-Leucine]
- suitable concentration compared with that in DMEM/F12 ([1]; titration, daily medium change): approximately suitable

Compound: [Cl-].[Na+] [NaCl, Sodium chloride (NaCl)]
- osmolarity produced [2]: 295 mOsm/L
- concentration suitable for hiPSC growth ([1]; NaCl titration in the presence of sodium bicarbonate, two-passage assay): 110 mM

Compound: N[C@@H](CS)C(=O)O [cysteine, L-Cysteine HCl•H2O]
- requirement of the component for hiPSC growth [1, 3]: can replace the cystine and cysteine combination
